From patent US7524968B2, “2-pyridinylcycloalkylbenzamide derivatives and their use as fungicides” (Bayer Cropscience S.A., priority 2004, dated 2009)

Assays:
Details in all cases: 330 ppm; result in words
Botrytis cinerea = experiment: Effectiveness on Botrytis cinerea (comparison compounds of WO 01/11965); type: in vivo
Peronospora parasitica = experiment: Efficacy against Peronospora parasitica (comparison compound of WO 01/11965); type: in vivo
Alternaria brassicae = experiment: In vivo test on Alternaria brassicae (leaf spot of crucifers) on radish plants
Description: The active ingredient tested is prepared by potter homogenization in a concentrated suspension type formulation at 100 g/l. This suspension is then diluted with water to obtain the desired active material concentration.
Radish plants (Pernot variety) in starter cups, sown on a 50/50 peat soil-pozzolana substrate and grown at 18-20° C., are treated at the cotyledon stage by spraying with the aqueous suspension described above.
Plants, used as controls, are treated with an aqueous solution not containing the active material.
After 24 hours, the plants are contaminated by spraying them with an aqueous suspension of Alternaria brassicae spores (40,000 spores per cm^3). The spores are collected from a 12-13-day-old culture.
The contaminated radish plants are incubated for 6-7 days at about 18° C., under a humid atmosphere.
Grading is carried out 6 to 7 days after the contamination, in comparison with the control plants.

Structure (SMILES) | effectiveness on Botrytis cinerea (Botrytis cinerea) | efficacy against Peronospora parasitica (Peronospora parasitica) | effectiveness on Alternaria brassicae (Alternaria brassicae)
O=C(Cc1cccs1)NCc1ncc(C(F)(F)F)cc1Cl [compound 101, N-{[3-chloro-5-(trifluoromethyl)-2-pyridinyl]methyl}-5-thienylacetamide] | no efficacy | no efficacy | poor efficacy
CCNC(=O)C(Cc1ncc(C(F)(F)F)cc1Cl)NC(=O)c1ccccc1 (stereo not drawn) [compound 304, N-{1-ethylcarbamoyl-2-[3-chloro-5-(trifluoromethyl)-2-pyridinyl]-ethyl}-benzamide] | zero effectiveness |  | 
CCNC(=O)C(Cc1ncc(C(F)(F)F)cc1Cl)NC(=O)c1ccc(Cl)cc1 (stereo not drawn) [compound 306, N-{1-ethylcarbamoyl-2-[3-chloro-5-(trifluoromethyl)-2-pyridinyl]ethyl}-4-chlorobenzamide] | zero effectiveness |  | 
CCNC(=O)C(Cc1ncc(C(F)(F)F)cc1Cl)NC(=O)c1cccc([N+](=O)[O-])c1 (stereo not drawn) [compound 307, N-{1-ethylcarbamoyl-2-[3-chloro-5-(trifluoromethyl)-2-pyridinyl]ethyl}-3-nitrobenzamide] | zero effectiveness |  | poor effectiveness
CCNC(=O)C(Cc1ncc(C(F)(F)F)cc1Cl)NC(=O)c1ccccc1Br (stereo not drawn) [compound 310, N-{1-ethylcarbamoyl-2-[3-chloro-5-(trifluoromethyl)-2-pyridinyl]ethyl}-2-bromobenzamide] | zero effectiveness |  | 
CNC(=O)C(Cc1ncc(C(F)(F)F)cc1Cl)NC(=O)c1ccccc1 (stereo not drawn) [compound 314, N-{1-methylcarbamoyl-2-[3-chloro-5-(trifluoromethyl)-2-pyridinyl]ethyl}-benzamide] | zero effectiveness |  | 
CNC(=O)C(Cc1ncc(C(F)(F)F)cc1Cl)NC(=O)c1ccc(OC)cc1 (stereo not drawn) [compound 315, N-{1-methylcarbamoyl-2-[3-chloro-5-(trifluoromethyl)-2-pyridinyl]ethyl}-4-methoxybenzamide] | zero effectiveness |  | 
CNC(=O)C(Cc1ncc(C(F)(F)F)cc1Cl)NC(=O)c1ccc(-c2ccccc2)cc1 (stereo not drawn) [compound 316, N-{1-methylcarbamoyl-2-[3-chloro-5-(trifluoromethyl)-2-pyridinyl]-ethyl}-4-phenylbenzamide] | zero effectiveness |  | poor effectiveness
